Measurements as given in PMC8187479, “Sugar phosphate activation of the stress sensor eIF2B” (Nature Communications, 2021).
Residue numbers refer to the chain shown, from its start. Where “and” joins values, the source holds several entries; their conditions need not be identical. Equal entries are not always repeated.

Experiments:
eIF2B = target: T1, eIF2B (Homo sapiens, UniProt P49770+Q14232+Q9UI10); experiment: eIF2B GEF activity assay, targeted, recombinant wild-type eIF2B; format: biochemical; conditions: 500 nM ISRIB, 200 μM F6P, 200 μM G1P
T1 construct: made in house; host or cells: eIF2Bα: E. coli BL21(DE3)
Description: Bodipy-FL-GDP-loaded eIF2 was used as a substrate for recombinant eIF2B. The assay was performed in 384-well plates. Reactions were read on a SpectraMax i3x plate reader (Molecular Devices) using the instrument’s Softmax Pro software with the following parameters: plate temperature = 25 °C; excitation wavelength = 485 nm (15 nm width); emission wavelength = 535 nm (25 nm width); read duration = 30 min at 45 s intervals. Data were analyzed in Prism. GDP release half-lives were calculated by fitting single-exponential decay curves.
For unbiased screening, MIDAS metabolite libraries at 10 mM stock concentration were dispensed into wells of the assay plate using an Echo Acoustic Liquid Handler (Labcyte). In a final assay volume of 10 μL/well, the following conditions were kept constant: 25 nM Bodipy-FL-GDP-loaded eIF2, 4 nM phospho-eIF2, 0.1 mM GDP, 1 mg/mL BSA, 1 nM eIF2B, 10 μM metabolite. A single well was run for each metabolite. For targeted experiments with recombinant wild-type and mutant eIF2Bα, the following conditions were used: 50 nM Bodipy-FL-GDP-loaded eIF2, 0.1 mM GDP, 1 mg/ml BSA, 20 nM eIF2B. For targeted experiments with HEK293T lysates, the following conditions were used: 50 nM Bodipy-FL-GDP-loaded eIF2, 0.1 mM GDP, 1 mg/ml BSA, 0.1 or 0.3 mg/ml lysates.

[1] = target: T2, eIF2B decamer in WT HEK293T lysate (Homo sapiens, UniProt P49770+Q14232+Q9UI10); experiment: Sucrose gradient centrifugation, eIF2B complex assembly, WT HEK293T lysate; format: biochemical; conditions: 400 mM KCl, 5–20% sucrose gradient
T2 construct: endogenous in cells; host or cells: HEK293T (wild type) lysate
Description: WT or eIF2Bα mutant HEK293T cells were harvested and lysed in 50 mM HEPES, 400 mM KCl, 1 mM DTT, 4 mM Mg(OAc)2, pH 7.5 + 0.5% Triton-X-100 + EDTA-free protease inhibitor cocktail (Roche) on ice for 30 min. Lysates were cleared by centrifugation at 48,000 × g, 4 °C for 30 min. 100 μL of each cleared lysate was loaded onto a 5–20% sucrose gradient prepared in a 13 × 51 mm ultracentrifuge tube using a Gradient Station (Biocomp) and centrifuged in a SW55 Ti rotor at 152,000 × g, 4 °C for 12 h. After centrifugation, 24 × 200 μL fractions were manually collected from the top to bottom of each gradient. Each fraction was subjected to methanol/chloroform precipitation and SDS-PAGE followed by Western Blot with the indicated antibodies. Blots were imaged on a ChemiDoc MP (Bio-Rad), and band intensities were quantified using the instrument’s Image Lab software. Each value was then divided by total intensity obtained across all fractions to determine percent enrichment of each subunit in each fraction.

eIF2Bα [2] = target: T3, eIF2Bα (Homo sapiens, UniProt Q14232); experiment: Differential scanning fluorimetry (Protein Thermal Shift), eIF2Bα Tm; format: binding; conditions: individual replicates Rep 1-4, control without metabolite about 64.1
T3 construct: made in house; host or cells: E. coli BL21(DE3)
T3 sequence (Q14232 1-305): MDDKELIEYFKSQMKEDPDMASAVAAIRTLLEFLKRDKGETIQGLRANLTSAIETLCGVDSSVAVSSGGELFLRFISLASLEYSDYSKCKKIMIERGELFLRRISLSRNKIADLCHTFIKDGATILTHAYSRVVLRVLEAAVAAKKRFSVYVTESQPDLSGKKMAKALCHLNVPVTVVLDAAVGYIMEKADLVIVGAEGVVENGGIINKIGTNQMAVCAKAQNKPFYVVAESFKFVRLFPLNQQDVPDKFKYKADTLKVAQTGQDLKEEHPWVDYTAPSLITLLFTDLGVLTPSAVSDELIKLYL
Description: The effect of metabolite binding on eIF2Bα Tm was assessed using the Protein Thermal Shift assay (Thermo Fisher), following manufacturer’s instructions. Briefly, reaction conditions for each 20 μL reaction were: 1.1 μg (1.5 μM) of eIF2Bα, 5 μl Thermal Shift buffer, 1X Thermal Shift dye, and metabolites in dose response. Reactions were run in 384-well format on a QuantStudio 6 Flex instrument (Thermo Fisher). The resulting melt curves were analyzed using Protein Thermal Shift Software, and eIF2Bα Tms for each condition were calculated by fitting to the Boltzmann function.

eIF2Bα [3] = target: T3, eIF2Bα; experiment: Isothermal titration calorimetry, wild-type eIF2Bα; format: binding
Description: (§1) Interactions between recombinant protein and sugar phosphates were conducted with a MicroCal PEAQ-ITC (Malvern Panalytical Inc.). Experiments were performed in 25 mM HEPES, 150 mM NaCl, pH 7.5 at 20 °C. The sugar phosphate concentration in the syringe was 1 mM or 1.5 mM, and ~3.5 μL aliquots were injected into cells containing 300 μL eIF2Bα or eIF2B(βδγε) at a concentration of 20–30 μM. The final titration curves were fitted using MicroCal ITC data analysis software, assuming a single binding site per monomer.

eIF2Bα^N208Y = target: T4, eIF2Bα^N208Y (Homo sapiens, UniProt Q14232, N208Y); experiment: Isothermal titration calorimetry, eIF2Bα N208Y; format: binding; conditions: ITC
T4 construct: made in house; host or cells: E. coli BL21(DE3)
T4 sequence (Q14232 1-305 N208Y): T3 sequence (Q14232 1-305) with N208Y
Description: as §1

T2 sequence (P49770 whole entry, one chain of several): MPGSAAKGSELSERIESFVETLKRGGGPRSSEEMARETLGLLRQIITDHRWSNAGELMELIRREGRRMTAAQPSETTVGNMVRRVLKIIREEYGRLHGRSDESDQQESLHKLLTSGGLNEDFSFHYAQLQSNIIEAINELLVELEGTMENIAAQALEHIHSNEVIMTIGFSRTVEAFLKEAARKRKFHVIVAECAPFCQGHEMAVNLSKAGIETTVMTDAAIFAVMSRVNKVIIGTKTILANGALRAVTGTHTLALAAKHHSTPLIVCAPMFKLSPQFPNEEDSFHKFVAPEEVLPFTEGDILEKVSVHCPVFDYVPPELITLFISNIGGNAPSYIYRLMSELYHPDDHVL
T2 sequence (Q9UI10 whole entry, one chain of several): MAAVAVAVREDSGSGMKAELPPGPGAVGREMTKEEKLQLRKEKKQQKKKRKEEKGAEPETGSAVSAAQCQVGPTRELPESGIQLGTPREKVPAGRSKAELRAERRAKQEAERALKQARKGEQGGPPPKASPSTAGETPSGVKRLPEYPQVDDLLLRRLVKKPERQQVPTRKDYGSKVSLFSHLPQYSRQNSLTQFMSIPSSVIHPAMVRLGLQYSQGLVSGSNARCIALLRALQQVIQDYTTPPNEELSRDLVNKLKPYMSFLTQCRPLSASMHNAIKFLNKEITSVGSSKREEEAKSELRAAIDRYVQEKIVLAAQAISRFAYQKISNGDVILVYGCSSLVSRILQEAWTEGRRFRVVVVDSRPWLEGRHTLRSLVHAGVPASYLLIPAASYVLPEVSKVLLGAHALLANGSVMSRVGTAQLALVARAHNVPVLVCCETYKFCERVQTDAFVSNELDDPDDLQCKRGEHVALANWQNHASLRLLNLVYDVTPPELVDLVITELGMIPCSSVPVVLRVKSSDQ
T2 sequence (Q9NR50 whole entry partner, one chain of several): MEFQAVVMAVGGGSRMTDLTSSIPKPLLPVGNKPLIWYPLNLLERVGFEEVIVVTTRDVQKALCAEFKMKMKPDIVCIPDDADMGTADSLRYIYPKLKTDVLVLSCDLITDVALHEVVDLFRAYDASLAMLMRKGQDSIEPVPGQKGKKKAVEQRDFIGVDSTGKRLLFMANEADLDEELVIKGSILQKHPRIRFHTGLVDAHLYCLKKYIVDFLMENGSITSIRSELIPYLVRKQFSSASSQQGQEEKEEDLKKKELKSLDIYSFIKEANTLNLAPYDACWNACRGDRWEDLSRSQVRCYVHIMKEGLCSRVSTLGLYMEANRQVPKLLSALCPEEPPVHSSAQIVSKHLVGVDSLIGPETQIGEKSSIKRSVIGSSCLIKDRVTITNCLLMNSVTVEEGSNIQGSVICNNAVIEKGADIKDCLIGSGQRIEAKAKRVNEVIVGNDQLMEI
T2 sequence (Q13144 whole entry partner, one chain of several): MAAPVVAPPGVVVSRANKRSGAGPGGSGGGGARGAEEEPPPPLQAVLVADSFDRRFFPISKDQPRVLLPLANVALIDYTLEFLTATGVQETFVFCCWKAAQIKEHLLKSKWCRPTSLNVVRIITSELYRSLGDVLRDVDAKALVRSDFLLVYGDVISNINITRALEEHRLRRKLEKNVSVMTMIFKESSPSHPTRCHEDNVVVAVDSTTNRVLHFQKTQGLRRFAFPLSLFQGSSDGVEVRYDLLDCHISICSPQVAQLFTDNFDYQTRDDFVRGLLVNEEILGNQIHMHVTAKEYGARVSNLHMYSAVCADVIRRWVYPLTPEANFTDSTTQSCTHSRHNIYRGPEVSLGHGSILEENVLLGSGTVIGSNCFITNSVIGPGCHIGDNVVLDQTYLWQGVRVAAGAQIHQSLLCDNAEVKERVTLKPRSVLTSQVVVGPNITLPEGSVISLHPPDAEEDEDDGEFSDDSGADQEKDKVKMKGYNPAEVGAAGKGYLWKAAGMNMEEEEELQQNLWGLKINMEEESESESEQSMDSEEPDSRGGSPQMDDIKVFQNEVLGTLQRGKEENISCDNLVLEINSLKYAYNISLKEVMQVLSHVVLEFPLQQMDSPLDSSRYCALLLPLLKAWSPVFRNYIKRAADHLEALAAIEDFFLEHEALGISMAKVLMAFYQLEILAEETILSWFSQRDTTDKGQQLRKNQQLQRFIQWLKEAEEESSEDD
T1 sequence (P49770 whole entry, one chain of several): as the sequence (P49770 whole entry, one chain of several) above
T1 sequence (Q9UI10 whole entry, one chain of several): as the sequence (Q9UI10 whole entry, one chain of several) above
T1 sequence (Q9NR50 whole entry partner, one chain of several): as the sequence (Q9NR50 whole entry partner, one chain of several) above
T1 sequence (Q13144 whole entry partner, one chain of several): as the sequence (Q13144 whole entry partner, one chain of several) above

## O=P(O)(O)O[C@H]1O[C@H](CO)[C@@H](O)[C@H](O)[C@H]1O [G1P, glucose-1-phosphate]
eIF2B
  effect on GEF activity of recombinant wild-type eIF2B: an inactive metabolite in the enzymatic assay
[1]
  eIF2B decamer formation (migration of eIF2Bα and eIF2Bδ): did not affect the migration of eIF2B subunits
eIF2Bα [2]; 0.33 mM metabolite
  Tm of eIF2Bα: 64.9734 °C and 64.7812 °C and 64.8751 °C and 63.7923 °C
eIF2Bα [2]; 1 mM metabolite
  Tm of eIF2Bα: 65.6948 °C and 65.7116 °C and 65.1967 °C and 64.0445 °C
eIF2Bα [2]; 3.3 mM metabolite
  Tm of eIF2Bα: 65.6535 °C and 64.9673 °C and 65.2055 °C and 64.2208 °C
eIF2Bα [2]; 10 mM metabolite
  Tm of eIF2Bα: 65.8625 °C and 65.8106 °C and 65.498 °C and 64.4559 °C
eIF2Bα [3]; ITC, wild-type eIF2Bα
  interaction with eIF2Bα: did not interact

## O=C[C@@H](O)[C@@H](O)[C@H](O)[C@H](O)COP(=O)(O)O [M6P, mannose-6-phosphate]
eIF2Bα^N208Y
  interaction with eIF2Bα N208Y: does not interact
eIF2Bα [2]; 0.33 mM metabolite
  Tm of eIF2Bα: 64.7587 °C and 64.5257 °C and 64.0751 °C and 63.7209 °C
eIF2Bα [2]; 1 mM metabolite
  Tm of eIF2Bα: 66.0911 °C and 65.9704 °C and 65.2776 °C and 64.2935 °C
eIF2Bα [2]; 5 mM metabolite
  Tm of eIF2Bα: 66.7846 °C and 66.6099 °C and 66.516 °C and 65.7833 °C
eIF2Bα [3]; ITC, wild-type eIF2Bα
  Kd: 282 ± 35 µM
eIF2Bα [3]; molar ratio 0.225339
  ITC binding isotherm, heat per mole of injectant: -1.246 kcal/mol
eIF2Bα [3]; molar ratio 0.415168
  ITC binding isotherm, heat per mole of injectant: -1.08 kcal/mol
eIF2Bα [3]; molar ratio 0.606855
  ITC binding isotherm, heat per mole of injectant: -1.012 kcal/mol
eIF2Bα [3]; molar ratio 0.8004
  ITC binding isotherm, heat per mole of injectant: -0.9251 kcal/mol
eIF2Bα [3]; molar ratio 0.995804
  ITC binding isotherm, heat per mole of injectant: -0.7798 kcal/mol
eIF2Bα [3]; molar ratio 1.19307
  ITC binding isotherm, heat per mole of injectant: -0.7719 kcal/mol
eIF2Bα [3]; molar ratio 1.39219
  ITC binding isotherm, heat per mole of injectant: -0.7333 kcal/mol
eIF2Bα [3]; molar ratio 1.59317
  ITC binding isotherm, heat per mole of injectant: -0.643 kcal/mol
eIF2Bα [3]; molar ratio 1.796
  ITC binding isotherm, heat per mole of injectant: -0.5884 kcal/mol
eIF2Bα [3]; molar ratio 2.0007
  ITC binding isotherm, heat per mole of injectant: -0.5938 kcal/mol
eIF2Bα [3]; molar ratio 2.20725
  ITC binding isotherm, heat per mole of injectant: -0.6099 kcal/mol
eIF2Bα [3]; molar ratio 2.41567
  ITC binding isotherm, heat per mole of injectant: -0.5269 kcal/mol
eIF2Bα [3]; molar ratio 2.62594
  ITC binding isotherm, heat per mole of injectant: -0.5106 kcal/mol
eIF2Bα [3]; molar ratio 2.83807
  ITC binding isotherm, heat per mole of injectant: -0.4795 kcal/mol
eIF2Bα [3]; molar ratio 3.05206
  ITC binding isotherm, heat per mole of injectant: -0.426 kcal/mol
eIF2Bα [3]; molar ratio 3.2679
  ITC binding isotherm, heat per mole of injectant: -0.4467 kcal/mol
eIF2Bα [3]; molar ratio 3.48561
  ITC binding isotherm, heat per mole of injectant: -0.4459 kcal/mol
eIF2Bα [3]; molar ratio 3.70517
  ITC binding isotherm, heat per mole of injectant: -0.1953 kcal/mol
